Earlier results in PMC12281572.
“And” between values parts separate entries of the source, which are not always exact repeats. Identical values can stand only once.

assay: FTIR, 4-fluorophenol as donor (the pK_BHX database, per the paper); conditions: CCl4; 25 C

Row | Compound | pK_BHX (log10 Kf of the 1:1 H-bond complex with 4-fluorophenol, by FTIR)
1 | Clc1ccc(N=C(Nc2ccccc2)c2ccccc2)cc1 | 1.13 log units
2 | CCSSCC | -0.4 log units
3 | N#Cc1ccccc1C(F)(F)F | 0.57 log units
4 | Brc1ccccn1 | 1.03 log units
5 | C=CCNCC=C | 1.7 log units
6 | Cc1cccnc1 | 2.0 log units
7 | N#Cc1c(F)c(F)c(F)c(F)c1F | 0.01 log units
8 | O=[N+]([O-])c1cccc(N=C(Nc2ccccc2)c2ccccc2)c1 | 0.86 log units
9 | CNc1ccc(Cl)cc1 | 0.05 log units
10 | C=Cc1ccccn1 | 1.65 log units
11 | CCN(CC)C(=O)c1cccnc1 | 1.98 log units and 1.63 log units
12 | Oc1cccc(C(F)(F)F)c1 | -0.36 log units
13 | NCCCCCCN | 2.21 log units
14 | OC(C(F)(F)F)C(F)(F)F | -0.96 log units
15 | c1ccc(-c2nc3ccccc3o2)cc1 | 1.18 log units
16 | C=CCN(CC=C)CC=C | 1.34 log units
17 | CN1C(CC(=O)c2ccccc2)CCCC1CC(O)c1ccccc1 (centres unmarked) | 2.11 log units and 1.94 log units
18 | CN=C(c1ccc(Br)cc1)N(C)C | 2.19 log units
19 | Fc1cccc(C2CCCN2)c1 (centres unmarked) | 1.65 log units
20 | CN(C(=Nc1ccc(Br)cc1)c1ccccc1)c1ccccc1 | 1.11 log units
21 | CC(C)N(C#N)C(C)C | 1.74 log units
22 | CC12CCC(CC1=N[N+](=O)[O-])C2(C)C (centres unmarked) | 0.34 log units
23 | CCCCNC | 2.24 log units
24 | Oc1ccccc1 | -0.07 log units
25 | CCCC(=O)c1ccccc1 | 1.04 log units
26 | CCCCCC#N | 0.89 log units
27 | c1ccc2c(c1)OCCO2 | -0.23 log units
28 | CN=Cc1ccccc1 | 1.49 log units

Row | Compound | pK_BHX (log10 Kf of the 1:1 H-bond complex with 4-fluorophenol, by FTIR)
29 | Brc1cncnc1 | 0.59 log units
30 | CCN(C(=O)N(CC)c1ccccc1)c1ccccc1 | 2.16 log units
31 | Cc1ccc(N(C)C)cc1 | 0.69 log units
32 | COC(C)=O | 1.0 log units
33 | c1ccc2nc3ccccc3cc2c1 | 1.95 log units
34 | Brc1ccccc1 | -0.66 log units and -0.92 log units
35 | CN(C)c1ccncc1 | 2.8 log units
36 | N#Cc1cccc(Br)c1 | 0.65 log units
37 | CCCCCl | -0.41 log units
38 | CCN(CC)C(=O)Cl | 1.08 log units
39 | CC(=O)c1ccc([N+](=O)[O-])cc1 | 0.57 log units and 0.15 log units
40 | CSc1ccccc1 | -0.32 log units and -0.48 log units
41 | c1ccc2ncccc2c1 | 1.89 log units
42 | Fc1ccccn1 | 0.95 log units
43 | O=CN1CCCC1 | 2.31 log units
44 | O=S(Cc1ccccc1)Cc1ccccc1 | 2.43 log units
45 | O=S1(=O)CCCC1 | 1.17 log units
46 | CC(C)N | 2.2 log units
47 | Cc1cc(C)nc(C)c1 | 2.29 log units
48 | Clc1ccncc1 | 1.54 log units
49 | CC(C)(C)C(=O)C(C)(C)C | 0.96 log units
50 | O=c1cccccc1 | 1.97 log units
51 | CCOC(=O)C(=O)OCC | 0.65 log units
52 | c1ccc2cnncc2c1 | 1.97 log units
53 | Clc1cccnc1 | 1.31 log units
54 | OCC(F)(F)F | -0.28 log units
55 | C1CCOCC1 | 1.23 log units

Next, values leading:

Row | pK_BHX (log10 Kf of the 1:1 H-bond complex with 4-fluorophenol, by FTIR) | Compound
56 | 3.24 log units | CCCC[N+](CCCC)(CCCC)[N-]C#N
57 | 0.43 log units | CNc1ccc(C)cc1
58 | 2.24 log units | CC(C)N(C=O)C(C)C
59 | 1.47 log units | Cc1ccc(NC(=Nc2ccccc2)c2ccccc2)cc1
60 | 2.68 log units | CC1CCN(c2ccncc2)CC1
61 | 0.88 log units | CCOC(=O)c1ccc(F)cc1
62 | 1.98 log units | CCCN(C)C
63 | 2.0 log units | CN(C)C=NCc1cc(Cl)cc(Cl)c1
64 | 2.02 log units | CN1CC=CCC1
65 | -0.28 log units | c1ccc(C23CC4CC(CC(C4)C2)C3)cc1
66 | 1.45 log units | O=C1CCCCCCC1
67 | 2.19 log units | CC(=O)N(C)c1ccccc1
68 | 2.27 log units | Cc1ccc(C(=O)N(C)C)cc1
69 | 1.19 log units | CC(=Nc1ccc(Br)cc1)N(C)c1ccc(Br)cc1
70 | 2.89 log units | CCN(CC)c1ccncc1
71 | 1.94 log units | CC(=O)N(c1ccccc1)c1ccccc1
72 | 2.48 log units | COc1ccccc1C(=O)N(C)C
73 | 2.16 log units | C1=CCNCC1
74 | 2.35 log units | CCN(CC)C(=O)c1ccc(OC)cc1
75 | 2.41 log units | CN(C)C=NC(C)(C)C

Row | pK_BHX (log10 Kf of the 1:1 H-bond complex with 4-fluorophenol, by FTIR) | Compound
76 | 1.22 log units | O=C1CCCCCCCCCCCCCC1
77 | 2.52 log units | CC(C)CN=CN(C)C
78 | 1.06 log units | CCOC(=O)C12CC3CC(CC(C3)C1)C2
79 | 2.58 log units | CN(N)c1ccncc1
80 | 1.11 log units | COc1ccccc1C=O
81 | 0.58 log units | COCOC
82 | 1.64 log units | C#CCNC
83 | 1.15 log units | Cc1ccc(C(=S)N(C)C)cc1
84 | 1.67 log units | CN(C)c1ccc(C(=O)c2ccccc2)cc1
85 | 1.21 log units | CC(=O)c1ccc(C(C)C)cc1
86 | 2.07 log units | CCc1ccncc1
87 | 0.16 log units | c1ccc(N2CCCC2)cc1
88 | -0.1 log units | CCC#CCC
89 | 1.3 log units | CC(=O)c1ccc(C23CC4CC(CC(C4)C2)C3)cc1
90 | 0.17 log units | CCCCSC
91 | 1.41 log units | O=C1CCCCCC1
92 | 2.11 log units | CCCCNCCCC
93 | 0.25 log units | CSC(C)(C)C
94 | 3.59 log units | CCCCCCCCP(=O)(CCCCCCCC)CCCCCCCC
95 | 1.33 log units | CCN(CC)c1ccc(N=O)cc1

Row | pK_BHX (log10 Kf of the 1:1 H-bond complex with 4-fluorophenol, by FTIR) | Compound
96 | 0.55 log units | COC(OC)OC
97 | 2.29 log units | CNCCNC
98 | 1.58 log units | CN1CN(C)CN(C)C1
99 | 1.64 log units | CC(C)(C)C(=O)N(c1ccccc1)c1ccccc1
100 | 1.41 log units | COC(=O)N(c1ccccc1)c1ccccc1
101 | -0.18 log units | ClC12CC3CC(CC(C3)C1)C2
102 | 2.23 log units | CN(C)C(=O)c1ccccc1
103 | 2.24 log units | Cc1ccncc1C
104 | 3.12 log units | c1ncn(C2CCCCC2)c1C1CCCCC1
105 | 1.44 log units | CC(=Nc1ccccc1)N(C)c1cccc(Cl)c1
106 | 0.23 log units | CN(C)n1cccc1
107 | -0.41 log units | COC(C(F)(F)F)C(F)(F)F
108 | 3.7 log units | COc1cc[n+]([O-])cc1
109 | 0.97 log units | N#CC1CCCCC1
110 | -0.14 log units | C1CSCCS1
111 | 2.59 log units | CCCN=CN(C)C
112 | 1.79 log units | CN(C)C=NC(=S)N(C)C
113 | 1.33 log units | CN(C)C(=S)c1ccc(N)cc1
